Test system: salty taste
Experiment: Sensory evaluation of salty taste-enhancing activity (quantitative sensory evaluation test)
Type: in vivo, panelists
Description: The strength of the salty taste enhancing activity of the compound of Example 35 was examined by a quantitative sensory evaluation test.
The quantitative sensory evaluation test was performed as follows. The strength of the salty taste enhancing activity when the compound of Example 35 as a sample was mixed at 0.00005 to 0.0040 g/dl with distilled water containing sodium chloride (0.5 g/dl) was measured. Distilled water containing sodium chloride at 0.55 g/dl, 0.60 g/dl, 0.65 g/dl was used as a comparison target. Using a linear measurement method, the corresponding marks were put down as positions in the straight lines showing the sodium chloride concentrations of 1.0 time (0.50 g/dl), 1.1 times (0.55 g/dl), 1.2 times (0.60 g/dl), 1.3 times (0.65 g/dl). For sensory marks, the positions put down by the panelists were measured, averaged and shown as the salty taste enhancement ratio (times) wherein n=5. […] The “initial taste” is the evaluation of the strength of the salty taste for 2 seconds after placing in the mouth, and the “middle and after taste” is a combination of middle taste and after taste, which is the evaluation of the strength of the salty taste after 2 seconds from placing in the mouth.

[1] = sensory evaluation FIG. 2 compared with FIG. 3

O=C(NCCc1c[nH]c2ccc(O)cc12)c1c(O)cccc1O [Example 35, 2,6-dihydroxy-N-(2-(5-hydroxy-1H-indol-3-yl)ethyl)benzamide]
salty taste enhancing activity (0.00005 to 0.0040 g/dl in distilled water containing sodium chloride 0.5 g/dl, n=5, FIG. 2): has a salty taste enhancing activity
concentration region in which salty taste enhancing effect and ENaC activation current began to show [1]: ≤ 0.0001 g/dL
concentration region in which salty taste enhancing effect and ENaC activation current reach plateau [1]: exceeding 0.0010 g/dl
